{"source": "patent US20250382298A1", "about": "“NITROGEN-CONTAINING COMPOUND AND USE THEREOF” (SUZHOU GENHOUSE BIO CO., LTD., priority 2022, published 2025)", "key": {"[1]": {"molecular_target": "cytochrome oxidase P450 2C9 (Homo sapiens (Human), UniProt P11712)", "sequence (P11712 whole entry)": "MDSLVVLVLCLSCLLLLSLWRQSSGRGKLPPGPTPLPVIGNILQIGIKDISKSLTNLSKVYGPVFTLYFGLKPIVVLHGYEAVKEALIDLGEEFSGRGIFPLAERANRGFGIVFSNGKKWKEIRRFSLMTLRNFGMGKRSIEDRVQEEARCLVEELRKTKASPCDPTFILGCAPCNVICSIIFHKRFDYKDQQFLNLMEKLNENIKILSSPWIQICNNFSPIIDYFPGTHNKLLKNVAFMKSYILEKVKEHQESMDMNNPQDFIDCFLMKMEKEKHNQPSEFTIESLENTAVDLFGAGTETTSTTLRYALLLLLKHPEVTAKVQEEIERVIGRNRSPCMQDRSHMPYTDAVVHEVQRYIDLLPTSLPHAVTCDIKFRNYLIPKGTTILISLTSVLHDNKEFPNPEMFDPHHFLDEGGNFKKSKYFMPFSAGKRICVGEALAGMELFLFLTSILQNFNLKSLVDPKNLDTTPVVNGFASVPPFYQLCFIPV", "test": "Inhibition of cytochrome oxidase P450 2C9", "assay_type": "in vitro ADME", "conditions": "liver microsomes, CYP2C9", "method": "100 mM K-Buffer: 9.5 mL of stock solution A was mixed with 40.5 mL of stock solution B, the total volume was adjusted to 500 mL with ultrapure water, and the buffer was titrated to pH 7.4 with KOH or H3PO4. The test compound powder was prepared into a stock solution at a certain concentration with DMSO or another organic solvent, which was then further diluted with a proper organic solvent. The liver microsomal in vitro incubation system for the CYP450 enzyme metabolism phenotype study was a biochemical reaction of prepared liver microsomes supplemented with a redox coenzyme and an enzyme-specific selective inhibitor under simulated physiological temperature and environment conditions. The concentration of the parent drug or a metabolite thereof in the incubation solution was determined by LC-MS/MS."}, "[2]": {"test": "Pharmacokinetic test in rats", "assay_type": "in vivo", "conditions": "SD rats; for AUC / Cmax / half-life: rat, plasma; for half-life: read-out: t½ (converted)", "method": "In this example, the pharmacokinetic behavior of the compounds after intravenous injection (IV) and intragastric (PO) administration in SD rats was tested.\nOn the day of administration, rats were weighed for actual body weight and the administration volume was calculated. Each compound was tested in two groups with 3 rats in each group; one group was subjected to administration by single intravenous injection, and the other group was subjected to single intragastric administration. Whole blood samples were collected via the jugular vein at prescribed time points (0.25 h, 0.5 h, 1 h, 2 h, 4 h, 8 h, and 24 h after administration). After blood sample collection, the samples were immediately transferred to labeled commercial sample tubes containing K2-EDTA (0.85-1.15 mg), followed by centrifugation (3200×g, 4° C., 10 min) and plasma collection. The plasma was transferred to a pre-cooled centrifuge tube, frozen in dry ice, and then stored in an ultra-low temperature freezer at −60° C. or lower until the LC-MS/MS analysis.\nPlasma concentrations were determined by the LC-MS/MS method. Plasma drug concentration data for the compounds were processed using a non-compartmental model in the WinNonlin Version 6.3 (Pharsight, Mountain View, CA) pharmacokinetic software. The relevant pharmacokinetic parameters were calculated by a linear-log trapezoidal method."}, "[3]": {"molecular_target": "cytochrome oxidase P450 1A2 (Homo sapiens (Human), UniProt P05177)", "sequence (P05177 whole entry)": "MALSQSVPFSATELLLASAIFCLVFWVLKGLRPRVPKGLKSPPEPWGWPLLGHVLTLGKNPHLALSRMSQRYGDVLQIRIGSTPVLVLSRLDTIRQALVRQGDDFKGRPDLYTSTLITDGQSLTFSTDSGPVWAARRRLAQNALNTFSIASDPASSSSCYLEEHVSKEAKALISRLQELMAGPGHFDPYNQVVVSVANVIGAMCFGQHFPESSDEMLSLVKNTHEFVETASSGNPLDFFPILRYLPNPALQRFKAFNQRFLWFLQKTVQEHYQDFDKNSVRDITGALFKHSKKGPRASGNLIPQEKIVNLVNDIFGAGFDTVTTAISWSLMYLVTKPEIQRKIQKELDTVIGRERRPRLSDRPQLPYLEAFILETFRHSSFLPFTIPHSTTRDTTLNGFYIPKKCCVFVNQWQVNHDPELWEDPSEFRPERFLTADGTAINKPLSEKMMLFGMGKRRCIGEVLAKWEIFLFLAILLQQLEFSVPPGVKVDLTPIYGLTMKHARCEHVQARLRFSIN", "test": "Inhibition of cytochrome oxidase P450 1A2", "assay_type": "in vitro ADME", "conditions": "liver microsomes, CYP1A2"}, "OVCAR3 cells": {"test_system": "OVCAR3 cells", "test": "Detection of cell proliferation activity by CCK8 method (OVCAR3)", "assay_type": "cell-based", "method_in_brief": "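OVCAR3 tumor cells in log-phase growth were trypsinized, counted and plated at 180 μL per well in 96-well plates, with PBS in the outer wells. The following day, compounds were added in 9 concentrations (1:5 dilutions starting at 10 μM final) in triplicate alongside DMSO controls. After 96 h, medium was swapped for 100 μL medium containing 10% CCK8. Plates were incubated 2 h at 37° C and read at 450 nm. Background-corrected inhibition relative to DMSO was fitted by non-linear regression in GraphPad Prism 7.0 to obtain IC50.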"}, "[4]": {"conditions": "Homo sapiens, OVCAR-3, CCK8, 96 h"}}, "note": "Where two headings read alike, the source gives them in different places."}
{"smiles": "O=C(Nc1cc2ccccc2c(N2CCC(F)(F)CC2)n1)c1ccc(NS(=O)(=O)CCO)cc1N1CCC2(CC1)CC2", "note": "[Compound 6]", "values": [{"measurement": "IC50", "setting": "[1]", "value": 5280, "unit": "nM"}, {"measurement": "F", "setting": "[2]; PO @5mpk", "value": 23, "unit": "%"}, {"measurement": "AUC", "setting": "[2]; 5 mg/kg, PO @5mpk", "value": 8.92, "unit": "µM·h"}, {"measurement": "Cmax", "setting": "[2]; 5 mg/kg, PO @5mpk", "value": 509, "unit": "nM"}, {"measurement": "half-life", "setting": "[2]; 5 mg/kg, PO @5mpk", "value": 55.8, "unit": "h"}, {"measurement": "IC50", "setting": "[3]", "value": "> 10000", "unit": "nM"}, {"measurement": "IC50", "setting": "OVCAR3 cells; [4]", "value": 57, "unit": "nM"}]}
{"smiles": "O=C(Nc1cc2ccsc2c(N2CCC(F)(F)CC2)n1)c1ccc(NS(=O)(=O)CCO)cc1N1CCC2(CC1)CC2", "note": "[Compound 15]", "values": [{"measurement": "F", "setting": "[2]; PO @5mpk", "value": 27, "unit": "%"}, {"measurement": "AUC", "setting": "[2]; 5 mg/kg, PO @5mpk", "value": 9.67, "unit": "µM·h"}, {"measurement": "Cmax", "setting": "[2]; 5 mg/kg, PO @5mpk", "value": 540, "unit": "nM"}, {"measurement": "half-life", "setting": "[2]; 5 mg/kg, PO @5mpk", "value": 22.8, "unit": "h"}]}
{"smiles": "CS(=O)(=O)Nc1ccc(C(=O)Nc2cn3ccnc3c(N3CCC(F)(F)CC3)n2)c(N2CC3CCC(C3)C2)c1", "note": "[Compound 19]", "values": [{"measurement": "IC50", "setting": "[1]", "value": 9380, "unit": "nM"}, {"measurement": "F", "setting": "[2]; PO @5mpk", "value": 63, "unit": "%"}, {"measurement": "AUC", "setting": "[2]; 5 mg/kg, PO @5mpk", "value": 20.5, "unit": "µM·h"}, {"measurement": "Cmax", "setting": "[2]; 5 mg/kg, PO @5mpk", "value": 1240, "unit": "nM"}, {"measurement": "half-life", "setting": "[2]; 5 mg/kg, PO @5mpk", "value": 12.2, "unit": "h"}, {"measurement": "IC50", "setting": "[3]", "value": "> 10000", "unit": "nM"}, {"measurement": "IC50", "setting": "OVCAR3 cells; [4]", "value": 23.1, "unit": "nM"}]}
{"smiles": "O=C(Nc1cn2ccnc2c(N2CCC(F)(F)CC2)n1)c1ccc(NS(=O)(=O)CCO)cc1N1CCC2(CC1)CC2", "note": "[Compound 8]", "values": [{"measurement": "IC50", "setting": "[1]", "value": 2660, "unit": "nM"}, {"measurement": "F", "setting": "[2]; PO @5mpk", "value": 16, "unit": "%"}, {"measurement": "AUC", "setting": "[2]; 5 mg/kg, PO @5mpk", "value": 1.56, "unit": "µM·h"}, {"measurement": "Cmax", "setting": "[2]; 5 mg/kg, PO @5mpk", "value": 303, "unit": "nM"}, {"measurement": "half-life", "setting": "[2]; 5 mg/kg, PO @5mpk", "value": 5.9, "unit": "h"}, {"measurement": "IC50", "setting": "[3]", "value": "> 10000", "unit": "nM"}, {"measurement": "IC50", "setting": "OVCAR3 cells; [4]", "value": 7.2, "unit": "nM"}]}
{"smiles": "O=C(Nc1cn2ccnc2c(N2CCC(F)(F)CC2)n1)c1ccc(NS(=O)(=O)CCO)cc1N1CC2CCC(C2)C1", "note": "[Compound 17]", "values": [{"measurement": "F", "setting": "[2]; PO @5mpk", "value": 39, "unit": "%"}, {"measurement": "AUC", "setting": "[2]; 5 mg/kg, PO @5mpk", "value": 3.2, "unit": "µM·h"}, {"measurement": "Cmax", "setting": "[2]; 5 mg/kg, PO @5mpk", "value": 582, "unit": "nM"}, {"measurement": "half-life", "setting": "[2]; 5 mg/kg, PO @5mpk", "value": 4.9, "unit": "h"}]}
{"smiles": "O=C(Nc1cc2c(c(N3CCC(F)(F)CC3)n1)COC2)c1ccc(NS(=O)(=O)CCO)cc1N1CCC2(CC1)CC2", "note": "[Compound 14]", "values": [{"measurement": "F", "setting": "[2]; PO @5mpk", "value": 25, "unit": "%"}, {"measurement": "AUC", "setting": "[2]; 5 mg/kg, PO @5mpk", "value": 1.92, "unit": "µM·h"}, {"measurement": "Cmax", "setting": "[2]; 5 mg/kg, PO @5mpk", "value": 351, "unit": "nM"}, {"measurement": "half-life", "setting": "[2]; 5 mg/kg, PO @5mpk", "value": 6.4, "unit": "h"}]}
{"smiles": "CS(=O)(=O)Nc1ccc(C(=O)Nc2cc3cc[nH]c3c(N3CCC(F)(F)CC3)n2)c(N2CCC3(CC2)CC3)c1", "note": "[Compound 47]", "values": [{"measurement": "IC50", "setting": "[1]", "value": 180, "unit": "nM"}, {"measurement": "IC50", "setting": "[3]", "value": "> 10000", "unit": "nM"}, {"measurement": "IC50", "setting": "OVCAR3 cells; [4]", "value": 8, "unit": "nM"}]}
{"smiles": "O=C(Nc1cn2c(F)cnc2c(N2CCC(F)(F)CC2)n1)c1ccc(NS(=O)(=O)CCO)cc1N1CCC2(CC1)CC2", "note": "[Compound 34]", "values": [{"measurement": "IC50", "setting": "[1]", "value": 4460, "unit": "nM"}, {"measurement": "F", "setting": "[2]; PO @30mpk", "value": 25.7, "unit": "%"}, {"measurement": "AUC", "setting": "[2]; 30 mg/kg, PO @30mpk", "value": 62.5, "unit": "µM·h"}, {"measurement": "Cmax", "setting": "[2]; 30 mg/kg, PO @30mpk", "value": 3430, "unit": "nM"}, {"measurement": "half-life", "setting": "[2]; 30 mg/kg, PO @30mpk", "value": 66.3, "unit": "h"}, {"measurement": "IC50", "setting": "[3]", "value": "> 10000", "unit": "nM"}, {"measurement": "IC50", "setting": "OVCAR3 cells; [4]", "value": 10.6, "unit": "nM"}]}
{"smiles": "O=C(Nc1cn2ncnc2c(N2CCC(F)(F)CC2)n1)c1ccc(NS(=O)(=O)CCO)cc1N1CCC2(CC1)CC2", "note": "[Compound 23]", "values": [{"measurement": "IC50", "setting": "OVCAR3 cells; [4]", "value": 5.7, "unit": "nM"}]}
{"smiles": "O=C(Nc1cn2cnnc2c(N2CCC(F)(F)CC2)n1)c1ccc(NS(=O)(=O)CCO)cc1N1CCC2(CC1)CC2", "note": "[Compound 24]", "values": [{"measurement": "IC50", "setting": "OVCAR3 cells; CCK8, 96 h", "value": 12.3, "unit": "nM"}]}
{"smiles": "O=C(Nc1cc2cc[nH]c2c(N2CCC(F)(F)CC2)n1)c1ccc(NS(=O)(=O)CCO)cc1N1CCC2(CC1)CC2", "note": "[Compound 22]", "values": [{"measurement": "IC50", "setting": "OVCAR3 cells; [4]", "value": 3.4, "unit": "nM"}]}
{"smiles": "O=C(Nc1cc2cccnc2c(N2CCC(F)(F)CC2)n1)c1ccc(NS(=O)(=O)CCO)cc1N1CCC2(CC1)CC2", "note": "[Compound 21]", "values": [{"measurement": "IC50", "setting": "[1]", "value": "> 10000", "unit": "nM"}, {"measurement": "F", "setting": "[2]; PO @5mpk", "value": 24.7, "unit": "%"}, {"measurement": "AUC", "setting": "[2]; 5 mg/kg, PO @5mpk", "value": 33.9, "unit": "µM·h"}, {"measurement": "Cmax", "setting": "[2]; 5 mg/kg, PO @5mpk", "value": 2090, "unit": "nM"}, {"measurement": "half-life", "setting": "[2]; 5 mg/kg, PO @5mpk", "value": 10.6, "unit": "h"}, {"measurement": "IC50", "setting": "[3]", "value": "> 10000", "unit": "nM"}, {"measurement": "IC50", "setting": "OVCAR3 cells; [4]", "value": 3.4, "unit": "nM"}]}
{"smiles": "Cc1cc(NC(=O)c2ccc(NS(=O)(=O)CCO)cc2N2CC3CCC(C3)C2)nc(N2CCC(F)(F)CC2)n1", "note": "[Compound 3]", "values": [{"measurement": "F", "setting": "[2]; PO @5mpk", "value": 57, "unit": "%"}, {"measurement": "AUC", "setting": "[2]; 5 mg/kg, PO @5mpk", "value": 16.2, "unit": "µM·h"}, {"measurement": "Cmax", "setting": "[2]; 5 mg/kg, PO @5mpk", "value": 1330, "unit": "nM"}, {"measurement": "half-life", "setting": "[2]; 5 mg/kg, PO @5mpk", "value": 7, "unit": "h"}, {"measurement": "IC50", "setting": "OVCAR3 cells; [4]", "value": 145, "unit": "nM"}]}
